This note sets out measurements from patent publication US20210300939A1, “Single Molecule Compounds Providing Multi-Target Inhibition of BTK and Other Proteins and Methods of Use Thereof” (SignalRx Pharmaceuticals, Inc., priority 2018, published 2021).

Experiment [1] has as its target T1, BRD4-2 (binding domain 2 of BRD4) (Homo sapiens, UniProt O60885).
T1 construct: purchased Reaction Biology Corp., Malvern, Pa; (contract assay)
In words: BRD4 binding domain 2 inhibition (Reaction Biology Corp.). The settings on record: 10-point curve; read-out: Target IC50 BRD4-2. On the procedure:
(§1) The BTK, PI3K, and/or bromodomain inhibitory activity of a compound of the invention can be determined by methods known to the skilled artisan, or by procuring relevant analysis by a commercial vendor offering such services. […] In vivo, PI3K inhibition can be determined from target tissue biopsies by standard tissue processing in which cells are disrupted and Western Blot analysis is performed to determine the presence or absence of pAKT (substrate of PI3K) relative to a control sample. PI3K inhibition assays and BTK inhibition assays are known in the art and can be procured commercially through vendors such as Reaction Biology (Malvern, Pa.). The activity of a compound of the invention as an inhibitor of a bromodomain-containing protein, such as a BET protein, including BRD2, BRD3, BRD4, and/or BRDT, or an isoform or mutant thereof, may be determined in vitro, in vivo, or in a cell line. In vitro assays include assays that determine inhibition of bromodomain-containing proteins. Alternatively, inhibitor binding may be determined by running a competition experiment where a provided compound is incubated with a bromodomain-containing protein, such as a BET protein bound to known ligands, labeled or unlabeled. In vitro bromodomain inhibition assays can be performed using Alpha Screen Technology (Perkin Elmer Life and Analytical Sciences, Shelton, Conn.). In vivo bromodomain inhibition can be determined indirectly by evaluating the amount of a protein whose gene transcription is influenced or controlled by the bromodomain protein, for example, MYCN protein transcription is controlled by BRD4 (J. E. Delmore et al., Cell 2011, 146, 904-917; A. Puissant, Cancer Discov. 2013, 3, 308-323).
(§2) Compounds of the invention were analyzed for their ability to inhibit target proteins in vitro. PI3K alpha, gamma, and delta inhibition activity was determined by Thermo Fisher Scientific-Biosciences Life Sciences Solutions, Madison, Wis. The bromodomain protein inhibition (binding domain 1 and 2 of BRD4) was determined at Reaction Biology Corp., Malvern, Pa. BTK inhibition was performed by Reaction Biology Corp., Malvern, Pa.
(§3) Additional information regarding the testing procedures is available at each company's website on the internet. The IC50 data was calculated from a 10-point curve by the vendor and is compiled in ranges in the Table 6 below.

Experiment [2] concerns the target T2, BRD4-1 (binding domain 1 of BRD4) (Homo sapiens, UniProt O60885).
T2 construct: purchased Reaction Biology Corp., Malvern, Pa; (contract assay)
In words: BRD4 binding domain 1 inhibition (Reaction Biology Corp.). The settings on record: 10-point curve; read-out: Target IC50 BRD4-1. On the procedure:
as §1, §2, §3

Experiment [3] concerns the target T3, PI3K δ (Homo sapiens, UniProt O00329).
T3 construct: purchased Thermo Fisher Scientific-Biosciences Life Sciences Solutions, Madison, Wis; (contract assay)
Put plainly: PI3K delta inhibition (Thermo Fisher Scientific). The class given is biochemical. The note with it: 10-point curve; read-out: Target IC50 PI3K δ. The procedure: as §1, §2, §3

The target in experiment [4] is T4, BTK (C481S) (Homo sapiens, UniProt Q06187, C481S).
T4 construct: purchased Reaction Biology Corp., Malvern, Pa; (contract assay)
Put plainly: BTK cysteine mutant C481S inhibition (Reaction Biology Corp.). Type of experiment: biochemical. The settings on record: for IC50: 10-point curve, read-out: Target IC50 BTK (C481S); for Ratio C481S/WT: ratio of the BTK IC50 values, C481S over wild-type. The procedure: as §2, §3

The target of experiment [5] is T5, PI3K γ (Homo sapiens, UniProt P48736).
T5 construct: purchased Thermo Fisher Scientific-Biosciences Life Sciences Solutions, Madison, Wis; (contract assay)
In words: PI3K gamma inhibition (Thermo Fisher Scientific). Type of experiment: biochemical. The settings on record: 10-point curve; read-out: Target IC50 PI3K γ. On the procedure: as §1, §2, §3

In experiment [6] the target is T6, BTK (WT) (Homo sapiens, UniProt Q06187).
T6 construct: purchased Reaction Biology Corp., Malvern, Pa; (contract assay)
In words: native BTK inhibition (Reaction Biology Corp.). The class given is biochemical. The settings on record: 10-point curve; read-out: Target IC50 BTK (WT). The procedure:
as §2, §3

Experiment [7] has as its target T7, PI3K α (Homo sapiens, UniProt P42336).
T7 construct: purchased Thermo Fisher Scientific-Biosciences Life Sciences Solutions, Madison, Wis; (contract assay)
Put plainly: PI3K alpha inhibition (Thermo Fisher Scientific). The class given is biochemical. The note with it: 10-point curve; read-out: Target IC50 PI3K α. The procedure:
as §1, §2, §3

Bounds are passed on as bounds.

T4 sequence (Q06187 whole entry C481S): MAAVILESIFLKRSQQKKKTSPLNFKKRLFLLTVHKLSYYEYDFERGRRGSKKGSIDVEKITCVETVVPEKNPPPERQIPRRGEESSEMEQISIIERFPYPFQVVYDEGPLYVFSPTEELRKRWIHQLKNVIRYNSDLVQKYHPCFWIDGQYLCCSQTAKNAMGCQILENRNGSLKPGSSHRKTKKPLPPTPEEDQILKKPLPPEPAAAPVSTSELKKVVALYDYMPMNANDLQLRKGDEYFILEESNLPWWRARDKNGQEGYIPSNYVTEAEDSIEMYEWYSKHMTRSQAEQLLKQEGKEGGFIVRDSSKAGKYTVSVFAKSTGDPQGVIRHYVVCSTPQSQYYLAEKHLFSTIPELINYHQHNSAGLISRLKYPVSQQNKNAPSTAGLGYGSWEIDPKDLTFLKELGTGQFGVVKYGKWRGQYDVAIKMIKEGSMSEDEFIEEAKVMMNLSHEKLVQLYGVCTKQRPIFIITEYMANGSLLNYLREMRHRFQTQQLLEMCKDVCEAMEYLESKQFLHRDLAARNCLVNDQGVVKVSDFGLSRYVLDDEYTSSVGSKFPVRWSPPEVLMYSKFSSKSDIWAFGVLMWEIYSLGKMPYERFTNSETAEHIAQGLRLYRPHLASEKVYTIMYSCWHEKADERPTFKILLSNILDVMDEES
T7 sequence (P42336 whole entry): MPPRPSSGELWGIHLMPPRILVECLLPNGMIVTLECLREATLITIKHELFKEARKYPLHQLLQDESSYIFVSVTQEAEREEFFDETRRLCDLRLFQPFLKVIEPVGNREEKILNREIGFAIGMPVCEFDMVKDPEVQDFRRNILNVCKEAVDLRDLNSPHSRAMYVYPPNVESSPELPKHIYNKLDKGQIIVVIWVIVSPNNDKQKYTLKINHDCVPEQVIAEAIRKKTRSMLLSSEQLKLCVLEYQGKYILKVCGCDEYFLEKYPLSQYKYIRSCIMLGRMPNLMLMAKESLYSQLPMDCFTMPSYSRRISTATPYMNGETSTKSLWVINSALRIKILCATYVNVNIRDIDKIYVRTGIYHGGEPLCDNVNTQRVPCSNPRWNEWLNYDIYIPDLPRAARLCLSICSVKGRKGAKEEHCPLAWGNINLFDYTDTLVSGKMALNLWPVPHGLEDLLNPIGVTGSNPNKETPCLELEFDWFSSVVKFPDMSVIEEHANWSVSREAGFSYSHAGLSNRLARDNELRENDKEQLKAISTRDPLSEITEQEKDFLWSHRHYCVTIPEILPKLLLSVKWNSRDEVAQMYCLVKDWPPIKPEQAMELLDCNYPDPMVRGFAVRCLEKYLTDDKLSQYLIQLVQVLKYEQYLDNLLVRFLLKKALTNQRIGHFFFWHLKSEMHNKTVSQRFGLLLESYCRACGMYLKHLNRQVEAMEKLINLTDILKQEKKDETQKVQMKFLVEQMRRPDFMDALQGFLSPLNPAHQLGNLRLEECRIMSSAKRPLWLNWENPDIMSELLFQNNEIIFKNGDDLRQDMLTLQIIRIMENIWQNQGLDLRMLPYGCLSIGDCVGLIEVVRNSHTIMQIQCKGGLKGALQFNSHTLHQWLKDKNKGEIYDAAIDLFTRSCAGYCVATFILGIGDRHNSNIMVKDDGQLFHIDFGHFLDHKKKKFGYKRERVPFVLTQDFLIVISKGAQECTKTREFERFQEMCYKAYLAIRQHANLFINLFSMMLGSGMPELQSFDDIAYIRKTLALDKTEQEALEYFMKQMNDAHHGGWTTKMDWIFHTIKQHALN
T7 sequence (P27986 whole entry partner): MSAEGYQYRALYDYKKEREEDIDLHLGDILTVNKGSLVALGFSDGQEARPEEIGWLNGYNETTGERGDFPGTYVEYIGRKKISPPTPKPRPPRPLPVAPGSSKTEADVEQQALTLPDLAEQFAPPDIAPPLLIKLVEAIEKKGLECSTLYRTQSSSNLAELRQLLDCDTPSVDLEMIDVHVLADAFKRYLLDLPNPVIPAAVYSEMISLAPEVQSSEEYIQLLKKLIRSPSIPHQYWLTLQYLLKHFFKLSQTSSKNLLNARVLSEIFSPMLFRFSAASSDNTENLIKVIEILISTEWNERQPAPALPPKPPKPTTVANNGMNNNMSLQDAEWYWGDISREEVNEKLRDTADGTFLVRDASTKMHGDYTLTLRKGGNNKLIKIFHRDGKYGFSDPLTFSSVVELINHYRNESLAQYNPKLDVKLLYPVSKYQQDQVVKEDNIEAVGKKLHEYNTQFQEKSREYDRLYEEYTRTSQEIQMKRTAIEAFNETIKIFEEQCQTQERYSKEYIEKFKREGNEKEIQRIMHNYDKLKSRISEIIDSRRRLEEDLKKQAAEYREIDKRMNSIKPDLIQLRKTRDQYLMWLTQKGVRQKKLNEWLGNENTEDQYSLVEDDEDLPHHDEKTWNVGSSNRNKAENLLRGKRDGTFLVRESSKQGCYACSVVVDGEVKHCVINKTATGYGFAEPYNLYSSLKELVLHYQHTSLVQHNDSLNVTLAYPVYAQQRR
T3 sequence (O00329 whole entry): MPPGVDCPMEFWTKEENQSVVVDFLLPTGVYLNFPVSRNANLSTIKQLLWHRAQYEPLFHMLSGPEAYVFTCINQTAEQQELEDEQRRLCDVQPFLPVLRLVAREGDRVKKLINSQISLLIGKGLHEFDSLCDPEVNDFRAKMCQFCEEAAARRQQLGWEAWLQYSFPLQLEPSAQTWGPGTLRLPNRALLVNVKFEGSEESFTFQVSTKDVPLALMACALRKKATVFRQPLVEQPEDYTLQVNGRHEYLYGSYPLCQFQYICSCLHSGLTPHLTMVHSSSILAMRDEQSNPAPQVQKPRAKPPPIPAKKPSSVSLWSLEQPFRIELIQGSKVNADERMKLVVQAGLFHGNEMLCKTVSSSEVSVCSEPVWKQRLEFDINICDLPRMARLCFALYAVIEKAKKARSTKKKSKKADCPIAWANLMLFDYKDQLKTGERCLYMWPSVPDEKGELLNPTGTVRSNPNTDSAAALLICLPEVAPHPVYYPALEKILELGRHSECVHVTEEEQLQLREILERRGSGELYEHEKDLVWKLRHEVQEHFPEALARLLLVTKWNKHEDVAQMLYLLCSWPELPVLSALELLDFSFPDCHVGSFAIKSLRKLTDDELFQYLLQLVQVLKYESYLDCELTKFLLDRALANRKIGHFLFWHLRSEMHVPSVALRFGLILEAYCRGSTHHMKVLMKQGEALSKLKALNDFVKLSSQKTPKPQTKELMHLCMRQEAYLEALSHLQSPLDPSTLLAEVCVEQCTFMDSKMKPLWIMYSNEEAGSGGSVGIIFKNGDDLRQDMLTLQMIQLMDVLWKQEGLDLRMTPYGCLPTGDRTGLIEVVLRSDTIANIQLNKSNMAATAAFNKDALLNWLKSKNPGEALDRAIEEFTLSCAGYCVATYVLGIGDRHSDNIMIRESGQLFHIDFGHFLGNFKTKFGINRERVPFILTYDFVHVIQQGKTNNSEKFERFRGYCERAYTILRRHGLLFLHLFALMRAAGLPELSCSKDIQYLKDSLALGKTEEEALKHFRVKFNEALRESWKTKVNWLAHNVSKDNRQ
T3 sequence (P27986 whole entry partner): as the sequence (P27986 whole entry partner) above
T5 sequence (P48736 whole entry): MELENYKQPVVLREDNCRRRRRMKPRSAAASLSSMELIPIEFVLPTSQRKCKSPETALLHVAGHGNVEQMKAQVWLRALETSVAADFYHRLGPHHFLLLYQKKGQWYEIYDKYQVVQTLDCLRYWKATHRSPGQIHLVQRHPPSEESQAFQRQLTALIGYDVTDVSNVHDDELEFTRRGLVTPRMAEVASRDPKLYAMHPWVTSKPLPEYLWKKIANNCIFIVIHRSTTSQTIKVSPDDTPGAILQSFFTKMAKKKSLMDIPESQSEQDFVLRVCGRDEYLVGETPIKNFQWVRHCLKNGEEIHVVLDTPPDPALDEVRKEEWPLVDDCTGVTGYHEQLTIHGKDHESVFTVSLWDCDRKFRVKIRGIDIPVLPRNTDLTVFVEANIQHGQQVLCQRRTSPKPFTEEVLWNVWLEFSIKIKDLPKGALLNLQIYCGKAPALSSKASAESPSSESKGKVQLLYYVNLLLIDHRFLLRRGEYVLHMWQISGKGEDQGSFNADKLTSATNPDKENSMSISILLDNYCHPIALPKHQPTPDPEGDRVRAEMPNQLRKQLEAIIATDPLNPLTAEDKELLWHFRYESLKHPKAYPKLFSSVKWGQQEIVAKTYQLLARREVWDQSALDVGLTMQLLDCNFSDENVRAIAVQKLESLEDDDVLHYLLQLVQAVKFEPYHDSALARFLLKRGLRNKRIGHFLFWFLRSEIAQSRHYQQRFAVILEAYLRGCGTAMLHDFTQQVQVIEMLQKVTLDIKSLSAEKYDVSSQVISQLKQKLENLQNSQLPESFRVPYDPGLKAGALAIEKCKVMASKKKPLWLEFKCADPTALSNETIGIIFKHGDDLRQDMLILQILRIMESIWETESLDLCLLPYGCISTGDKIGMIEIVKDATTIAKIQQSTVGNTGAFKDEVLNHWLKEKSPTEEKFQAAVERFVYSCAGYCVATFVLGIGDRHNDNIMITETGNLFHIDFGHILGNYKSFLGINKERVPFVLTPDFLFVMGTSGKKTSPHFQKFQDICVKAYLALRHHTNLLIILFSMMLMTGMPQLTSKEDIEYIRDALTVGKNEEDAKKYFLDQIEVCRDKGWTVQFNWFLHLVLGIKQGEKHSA
T6 sequence (Q06187 whole entry): as the sequence (Q06187 whole entry C481S) above, with S481C counted along it

The IC50 is the concentration at which inhibition is half-maximal. For the compound `N#C/C(=C\C1CC1)C(=O)Nc1cccc(-c2csc3c(=O)cc(N4CCOCC4)oc23)c1` [Compound 11, (E)-3-Cyclopropyl-2-{[m-(5-morpholino-7-oxo-4-oxa-1-thia-3-indenyl)phenylamino]carbonyl}acrylonitrile], the IC50 in experiment [1] is < 1000 nM; in experiment [2], 1000 to 10000 nM; in experiment [3], < 1000 nM; in experiment [4], 10000 to 30000 nM; in experiment [5] it was 1000 to 10000 nM; in experiment [6], 10000 to 30000 nM. Also, in experiment [7], the IC50 is < 1000 nM. The “Ratio C481S/WT” value in experiment [4] is reported as 1.3.
For `C=CS(=O)(=O)Nc1cccc(-c2csc3c(=O)cc(N4CCOCC4)oc23)c1` [II-18, 5-morpholino-3-[m-(vinylsulfonylamino)phenyl]-4-oxa-1-thia-7-indenone], the IC50 in experiment [1], in experiment [2], in experiment [3], in experiment [4], in experiment [5] and in experiment [6] was < 1000 nM throughout. The IC50 in experiment [7] was < 1000 nM. The “Ratio C481S/WT” value in experiment [4] is >20K.
With `C=CC(=O)Nc1cccc(-c2csc3c(=O)cc(N4CCNCC4)oc23)c1.O=C(O)C(F)(F)F` [Compound 3, 1-{m-[7-Oxo-5-(1-piperazinyl)-4-oxa-1-thia-3-indenyl]phenylamino}-2-propen-1-one], the IC50 is 1000 to 10000 nM in experiment [1]; < 1000 nM in experiment [2]; > 50000 nM in experiment [3]; 30000 to 50000 nM in experiment [4]; > 50000 nM in experiment [5]; 1000 to 10000 nM in experiment [6]. Further, the IC50 in experiment [7] is > 50000 nM. For the same compound, in experiment [4], the “Ratio C481S/WT” value is listed as 24.5.
With `C=CS(=O)(=O)N1CCOc2ccc(-c3csc4c(=O)cc(N5CCOCC5)oc34)cc21` [Compound 21, 5-Morpholino-3-[4-(vinylsulfonyl)-1-oxa-4-aza-3,4-dihydro-2H-naphth-6-yl]-4-oxa-1-thia-7-indenone], the IC50 in experiment [1], in experiment [2], in experiment [3], in experiment [4], in experiment [5] and in experiment [6] was < 1000 nM throughout. Moreover, the IC50 in experiment [7] is < 1000 nM. The “Ratio C481S/WT” value in experiment [4] was found to be 1402.
`C=CC(=O)Nc1cccc(-c2csc3c(=S)cc(N4CCOCC4)oc23)c1` [Compound 2, 1-[m-(5-Morpholino-7-thioxo-4-oxa-1-thia-3-indenyl)phenylamino]-2-propen-1-one]: the IC50 is 1000 to 10000 nM in experiment [1]; 10000 to 30000 nM in experiment [2]; < 1000 nM in experiment [3]; 10000 to 30000 nM in experiment [4]; < 1000 nM in experiment [5]; 1000 to 10000 nM in experiment [6]. The IC50 in experiment [7] was < 1000 nM. For the same compound, the “Ratio C481S/WT” value in experiment [4] is reported as 8.1.
On to `CC#CC(=O)Nc1cccc(-c2csc3c(=O)cc(N4CCOCC4)oc23)c1` [Compound 12, 1-[m-(5-Morpholino-7-oxo-4-oxa-1-thia-3-indenyl)phenylamino]-2-butyn-1-one], for which the IC50 in experiment [1] was < 1000 nM; in experiment [2], < 1000 nM; in experiment [3], < 1000 nM; in experiment [4], 10000 to 30000 nM; in experiment [5], < 1000 nM; in experiment [6], 1000 to 10000 nM. Further, the IC50 in experiment [7] was < 1000 nM. In addition, in experiment [4], the “Ratio C481S/WT” value amounted to 15.8.
With `CCCCC/C=C/C(=O)Nc1cccc(-c2csc3c(=O)cc(N4CCOCC4)oc23)c1` [Compound 10, (E)-1-[m-(5-Morpholino-7-oxo-4-oxa-1-thia-3-indenyl)phenylamino]-2-octen-1-one], the IC50 in experiment [1] was 10000 to 30000 nM; in experiment [2], 1000 to 10000 nM; in experiment [3], 1000 to 10000 nM; in experiment [5] it was 10000 to 30000 nM; in experiment [7], 1000 to 10000 nM.
